Assay results published in patent US8476430B2, “Fused heterocyclic compounds useful as kinase modulators” (Bristol-Myers Squibb Company, priority 2008, dated 2013).

Tests used:
Ramos RA1 B cells = assay: Ramos FLIPR assay; format: cell-based; conditions: Homo sapiens, inhibition of peak intracellular calcium after F(ab')2 anti-IgM/IgG stimulation, read-out: Human Ramos Cell FLIPR (IC50 μM)
Method: Ramos RA1 B cells (ATCC® CRL-1596) at a density of 2×10^6 cells/ml in RPMI minus phenol red (Invitrogen 11835-030) and 50 mM HEPES (Invitrogen 15630-130) containing 0.1% BSA (Sigma A8577) were added to one half volume of calcium loading buffer (BD bulk kit for probenecid sensitive assays, #640177) and incubated at room temperature in the dark for 1 hour. Dye-loaded cells were pelleted (Beckmann GS-CKR, 1200 rpm, RT, 5 minutes) and resuspended in RT RPMI minus phenol red with 50 mM HEPES and 10% FBS to a density of 1×10^6 cells/ml. 150 μl aliquots (150,000/well) were plated into 96 well poly-D-lysine coated assay plates (BD 35 4640) and briefly centrifuged (Beckmann GS-CKR 800 rpm, 5 minutes, without brake). 50 μal compound dilutions in 0.4% DMSO/RPMI minus phenol red+50 mM HEPES+10% FBS were added to the wells and the plate was incubated at RT in the dark for 1 hour. Assay plate was briefly centrifuged as above prior to measuring calcium levels.
Using the FLIPR1 (Molecular devices), cells were stimulated by adding 50 μl 200 μg/ml F(ab′)2 anti-IgM/IgG (Jackson ImmunoResearch 109-006-127) diluted in 1×HBSS (Invitrogen 14025-076), 50 mM HEPES, 0.1% BSA. Changes in intracellular calcium concentrations were measured for 180 seconds and percent inhibition was determined relative to peak calcium levels seen in the presence of F(ab′)2 anti-IgM/IgG only.

human recombinant Btk = target: T1, human recombinant Btk (Homo sapiens, UniProt Q06187); assay: Human recombinant Btk enzyme assay; format: biochemical; conditions: human recombinant Btk 1 nM, ATP 20 μM, 60 min room temperature
T1 construct: purchased Invitrogen Corporation
Method: Human Recombinant Btk Enzyme Assay
To V-bottom 384-well plates were added test compounds, human recombinant Btk (1 nM, Invitrogen Corporation), fluoresceinated peptide (1.5 μM), ATP (20 μM), and assay buffer (20 mM HEPES pH 7.4, 10 mM MgCl2, 0.015% Brij35 and 4 mM DTT in 1.6% DMSO), with a final volume of 30 μL. After incubating at room temperature for 60 min, the reaction was terminated by adding 45 μl of 35 mM EDTA to each sample. The reaction mixture was analyzed on the Caliper LABCHIP® 3000 (Caliper, Hopkinton, Mass.) by electrophoretic separation of the fluorescent substrate and phosphorylated product. Inhibition data were calculated by comparison to no enzyme control reactions for 100% inhibition and no inhibitor controls for 0% inhibition. Dose response curves were generated to determine the concentration required inhibiting 50% of kinase activity (IC50). Compounds were dissolved at 10 mM in dimethylsulfoxide (DMSO) and evaluated at eleven concentrations.

T1 sequence (Q06187 whole entry): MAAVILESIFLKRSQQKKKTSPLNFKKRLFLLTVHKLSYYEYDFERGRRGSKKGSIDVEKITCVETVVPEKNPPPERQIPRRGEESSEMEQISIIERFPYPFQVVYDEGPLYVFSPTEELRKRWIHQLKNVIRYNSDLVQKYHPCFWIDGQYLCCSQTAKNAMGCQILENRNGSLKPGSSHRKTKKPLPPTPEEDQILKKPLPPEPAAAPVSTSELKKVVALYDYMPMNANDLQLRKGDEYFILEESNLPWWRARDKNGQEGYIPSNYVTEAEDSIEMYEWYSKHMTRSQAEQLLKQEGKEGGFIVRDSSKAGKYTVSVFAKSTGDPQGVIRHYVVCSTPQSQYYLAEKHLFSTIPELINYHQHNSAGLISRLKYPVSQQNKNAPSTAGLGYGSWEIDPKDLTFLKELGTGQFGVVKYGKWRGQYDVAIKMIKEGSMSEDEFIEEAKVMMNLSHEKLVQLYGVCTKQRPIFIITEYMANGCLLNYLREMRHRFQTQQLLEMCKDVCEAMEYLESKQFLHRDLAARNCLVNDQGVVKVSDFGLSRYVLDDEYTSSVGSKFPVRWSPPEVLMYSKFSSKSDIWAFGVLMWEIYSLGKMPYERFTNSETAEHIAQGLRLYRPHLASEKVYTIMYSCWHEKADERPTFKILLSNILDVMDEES

With `Cc1c(NC(=O)c2ccc(C(C)(C)C)cc2)cccc1-c1nc(Nc2ccc(C(=O)N3CCOCC3)cc2)c2nccn2n1` [Example 1, 4-tert-Butyl-N-(2-methyl-3-(4-(4-(morpholine-4-carbonyl)phenylamino)imidazo[1,2-f][1,2,4]triazin-2-yl)phenyl)benzamide] the IC50 (Ramos RA1 B cells) was 0.028 µM and the IC50 (human recombinant Btk) was 46 nM.
